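Five compound concentrations were applied to cells in 96-well plates for 48 hours; endpoints were derived by simple linear interpolation of the resulting dose-response curve. GI50 marks 50% less growth.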 Calls of active or inactive are those of the source. Rule as the data show it: active = GI50 up to about 1.1 µM and inactive = higher. Residues, ends and D or L forms follow the SMILES beside them. *: point of attachment. Fmoc = O=C(OCC1c2ccccc2-c2ccccc21)*; Boc = CC(C)(C)OC(=O)*
Tests used:
Assay in all cases: NCI-60 cell line screen, 48 h
KM12 = system: KM12
CAKI-1 = system: CAKI-1
SR = system: SR
SK-MEL-2 = system: SK-MEL-2
UACC-62 = system: UACC-62
OVCAR-3 = system: OVCAR-3
PC-3 = system: PC-3
MDA-MB-231 = system: MDA-MB-231
CCRF-CEM = system: CCRF-CEM
SW-620 = system: SW-620
NCI-H226 = system: NCI-H226
TK-10 = system: TK-10
RXF 393 = system: RXF 393
NCI/ADR-RES = system: NCI/ADR-RES
786-0 = system: 786-0
SF-295 = system: SF-295
BT-549 = system: BT-549
T47D = system: T47D
HCT-116 = system: HCT-116
KM-20L2 = system: KM-20L2

Measured: GI50

O=C(O)CSCc1cccc2ccccc12
inactive: KM12 > 100 µM | CAKI-1 > 100 µM | SR > 100 µM | SK-MEL-2 > 100 µM | UACC-62 > 100 µM | OVCAR-3 > 100 µM | PC-3 > 100 µM | MDA-MB-231 > 100 µM | CCRF-CEM > 100 µM | SW-620 > 100 µM | NCI-H226 > 100 µM | TK-10 48.8 µM | RXF 393 > 100 µM | NCI/ADR-RES > 100 µM | 786-0 > 100 µM | SF-295 > 100 µM | BT-549 > 100 µM | T47D > 100 µM | HCT-116 > 100 µM

C=C1CC[C@@H]2[C@](C)(COC(=O)CCC(=O)O)CCC[C@@]2(C)[C@@H]1CCC1=CC(=O)OC1
inactive: KM12 > 100 µM | CAKI-1 > 100 µM | SR > 10 µM | SK-MEL-2 > 100 µM | UACC-62 > 100 µM | OVCAR-3 > 100 µM | PC-3 > 100 µM | MDA-MB-231 > 100 µM | CCRF-CEM > 100 µM | SW-620 > 100 µM | NCI-H226 > 100 µM | TK-10 > 100 µM | RXF 393 > 100 µM | NCI/ADR-RES > 100 µM | 786-0 > 100 µM | SF-295 > 100 µM | BT-549 > 100 µM | T47D > 100 µM | HCT-116 > 100 µM

O=C(NNC(=S)Nc1ccc(Cl)cc1)c1cc(-c2ccccc2)nc2ccccc12
inactive: KM12 4.49 µM | CAKI-1 4.71 µM | SR 2.21 µM | SK-MEL-2 2.56 µM | UACC-62 2.9 µM | OVCAR-3 2.66 µM | PC-3 3.42 µM | MDA-MB-231 12.2 µM | CCRF-CEM 1.66 µM | SW-620 4.91 µM | NCI-H226 11.5 µM | TK-10 7.19 µM | RXF 393 7.93 µM | NCI/ADR-RES 5.27 µM | 786-0 4.71 µM | SF-295 2.52 µM | BT-549 4.6 µM | T47D 2.33 µM | HCT-116 3.06 µM

CN1C(=O)C(=CNc2ccccc2Cl)C(=O)N(C)C1=O
inactive: KM12 > 100 µM | CAKI-1 > 100 µM | SR 19.4 µM | SK-MEL-2 19.2 µM | UACC-62 > 100 µM | OVCAR-3 15.2 µM | PC-3 20.2 µM | MDA-MB-231 > 100 µM | CCRF-CEM 14.6 µM | SW-620 > 100 µM | NCI-H226 > 100 µM | TK-10 > 100 µM | RXF 393 15.1 µM | NCI/ADR-RES > 100 µM | 786-0 18.5 µM | SF-295 17.7 µM | BT-549 > 100 µM | T47D 20.1 µM | HCT-116 18 µM

Oc1ccc(Cl)cc1-c1nc(S)nc(-c2ccccc2)c1Cl
inactive: KM12 > 100 µM | CAKI-1 48.1 µM | SR > 100 µM | SK-MEL-2 69.8 µM | UACC-62 > 10 µM | OVCAR-3 > 100 µM | PC-3 > 100 µM | MDA-MB-231 > 56.4 µM | CCRF-CEM > 100 µM | SW-620 > 100 µM | NCI-H226 > 100 µM | TK-10 49.1 µM | RXF 393 45 µM | NCI/ADR-RES > 100 µM | 786-0 34.7 µM | SF-295 28.6 µM | BT-549 44.7 µM | T47D > 100 µM | HCT-116 > 96.4 µM

CC(NNC(=O)c1ccncc1)c1ccc(Cl)c(Cl)c1 (configuration not stated)
inactive: KM12 > 100 µM | CAKI-1 > 100 µM | SR 60.8 µM | SK-MEL-2 > 100 µM | UACC-62 > 100 µM | OVCAR-3 > 100 µM | PC-3 71.3 µM | MDA-MB-231 > 100 µM | CCRF-CEM 43.4 µM | SW-620 > 100 µM | NCI-H226 > 100 µM | TK-10 > 100 µM | RXF 393 > 100 µM | NCI/ADR-RES > 100 µM | 786-0 > 100 µM | SF-295 > 100 µM | BT-549 > 100 µM | T47D 66.4 µM | HCT-116 > 100 µM

COC(=O)c1ccccc1C#CC#Cc1ccccc1C(=O)OC
inactive: KM12 3.19 µM | CAKI-1 > 10 µM | SR > 10 µM | SK-MEL-2 > 10 µM | UACC-62 > 10 µM | OVCAR-3 2.55 µM | PC-3 9.06 µM | MDA-MB-231 > 10 µM | CCRF-CEM > 10 µM | SW-620 > 10 µM | NCI-H226 5.48 µM | TK-10 > 10 µM | RXF 393 > 10 µM | NCI/ADR-RES > 10 µM | 786-0 > 10 µM | SF-295 > 10 µM | BT-549 > 10 µM | T47D > 10 µM | HCT-116 > 10 µM

C[C@@H](NC(=O)[C@@H]1C[C@]1(C)CO)c1cccc2ccccc12
inactive: KM12 > 100 µM | CAKI-1 > 100 µM | SR > 100 µM | SK-MEL-2 > 100 µM | UACC-62 > 100 µM | OVCAR-3 > 100 µM | PC-3 > 100 µM | MDA-MB-231 > 100 µM | CCRF-CEM > 100 µM | SW-620 > 100 µM | NCI-H226 > 100 µM | TK-10 > 100 µM | RXF 393 > 100 µM | NCI/ADR-RES > 100 µM | 786-0 > 100 µM | SF-295 > 100 µM | BT-549 > 100 µM | T47D > 100 µM | HCT-116 > 100 µM

O=C1c2ccccc2-c2nnc3c(c21)Cc1ccccc1C3
inactive: KM12 > 10 µM | CAKI-1 > 10 µM | SR > 10 µM | SK-MEL-2 > 10 µM | UACC-62 > 10 µM | OVCAR-3 > 10 µM | PC-3 9.53 µM | MDA-MB-231 > 10 µM | CCRF-CEM > 10 µM | SW-620 > 10 µM | NCI-H226 > 10 µM | TK-10 > 10 µM | RXF 393 > 10 µM | NCI/ADR-RES > 10 µM | 786-0 > 10 µM | SF-295 > 10 µM | BT-549 > 10 µM | T47D > 10 µM | HCT-116 > 10 µM

COC(OC)C(C)CC(=O)N(C)C (configuration not stated)
inactive: KM12 > 100 µM | KM-20L2 > 100 µM | SK-MEL-2 > 100 µM | UACC-62 > 100 µM | OVCAR-3 > 100 µM | CCRF-CEM > 100 µM | SW-620 > 100 µM | NCI-H226 > 100 µM | TK-10 > 100 µM | 786-0 > 100 µM | SF-295 > 100 µM | HCT-116 > 100 µM

CC(C)(C)OC(=O)NCCCCC(NC(=O)C(Cc1c[nH]c2ccccc12)NC(=O)OCC1c2ccccc2-c2ccccc21)C(=O)N1CCCC1C(=O)NCC(N)=O (configuration not stated) (Fmoc-WK(Boc)PG-NH2; configuration not given here)
inactive: KM12 > 100 µM | CAKI-1 > 100 µM | SR > 100 µM | SK-MEL-2 > 100 µM | UACC-62 > 100 µM | OVCAR-3 > 100 µM | PC-3 > 100 µM | MDA-MB-231 42.5 µM | CCRF-CEM > 100 µM | SW-620 > 100 µM | NCI-H226 > 100 µM | TK-10 > 100 µM | RXF 393 > 100 µM | NCI/ADR-RES > 100 µM | 786-0 > 100 µM | SF-295 60.3 µM | BT-549 > 100 µM | T47D > 100 µM | HCT-116 > 100 µM

Reference: ChEMBL document CHEMBL1201862, “PubChem BioAssay data set” (2004)
